Data published in the supplement of paper PMC10307832.

Assays:
Assay in all cases: relative viability (nuclei count vs DMSO), 5 days (fraction); higher = more cells survive
[1] = compound: CC1=C(CC(=O)O)c2cc(F)ccc2/C1=C\c1ccc([S+](C)[O-])cc1 [Sulindac] + Cc1nc(Nc2ncc(C(=O)Nc3c(C)cccc3Cl)s2)cc(N2CCN(CCO)CC2)n1 [Dasatinib] (partner 0.075 µM)
Outline: (§1)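 Dosing by pin tool came one day after lung cancer cell lines were seeded in 1536-well plates, using either one drug or a fixed anchor-drug dose plus five library-drug doses (not always all listed) in √10 steps. After 5 days, nuclei were counted on 4× images. Relative viability is treated-well nuclei count divided by vehicle-well nuclei count, and values are medians of duplicate plates.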

[2] = compound: CN[C@@H]1C[C@H]2O[C@@](C)([C@@H]1OC)n1c3ccccc3c3c4c(c5c6ccccc6n2c5c31)C(=O)NC4 [Staurosporine] + NC(=O)Nc1cc(-c2cccc(F)c2)sc1C(=O)N[C@H]1CCCNC1 [AZD7762] (partner 0.2 µM)
Outline: as §1

[3] = compound: O=c1[nH]cc(F)c(=O)[nH]1 [5-Fluorouracil] + O=C(c1cc(Cc2n[nH]c(=O)c3ccccc23)ccc1F)N1CCN(C(=O)C2CC2)CC1 [Olaparib] (partner 8 µM)
Outline: as §1

[4] = compound: CC1=C(CC(=O)O)c2cc(F)ccc2/C1=C\c1ccc([S+](C)[O-])cc1 [Sulindac] + NC(=O)Nc1cc(-c2cccc(F)c2)sc1C(=O)N[C@H]1CCCNC1 [AZD7762] (partner 0.2 µM)
Outline: as §1

Cell Line	relative viability ([1]; first compound 0.08 µM)	relative viability ([1]; first compound 0.253 µM)	relative viability ([1]; first compound 0.8 µM)	relative viability ([1]; first compound 2.53 µM)	relative viability ([1]; first compound 8 µM)	relative viability ([2]; first compound 0.005 µM)	relative viability ([2]; first compound 0.05 µM)	relative viability ([2]; first compound 0.1581 µM)	relative viability ([2]; first compound 0.5 µM)	relative viability ([3]; first compound 0.02 µM)	relative viability ([3]; first compound 0.2 µM)	relative viability ([3]; first compound 0.6325 µM)	relative viability ([3]; first compound 2 µM)	relative viability ([4]; first compound 0.08 µM)	relative viability ([4]; first compound 0.253 µM)	relative viability ([4]; first compound 0.8 µM)	relative viability ([4]; first compound 2.53 µM)	relative viability ([4]; first compound 8 µM)	relative viability ([2]; first compound 0.01581 µM)
NCI-H2170	0.631	0.586	0.659	0.508	0.741	1.05	0.43	0.0989	0.15	0.597	0.545	0.339	0.289	1.06	0.91	0.765	1.01	0.884	–
HCC-366	0.715	0.699	0.578	0.587	0.622	0.255	0.165	0.0217	0.0248	0.387	0.397	0.199	0.0788	0.284	0.257	–	0.359	0.265	–
NCI-H2405	0.22	0.234	0.331	0.218	0.228	0.239	0.112	–	0.0865	0.808	0.962	0.891	0.618	0.86	0.811	0.642	0.691	0.995	0.141
COR-L 105	0.307	0.42	0.305	0.291	0.393	–	–	–	–	0.713	0.792	0.58	0.512	–	–	–	–	–	–
201T	0.662	0.585	0.526	0.559	0.587	0.599	0.498	0.579	0.342	0.82	–	0.252	0.249	0.647	0.628	0.868	0.661	0.596	–
NCI-H2228	0.592	0.596	0.375	0.549	0.526	–	–	–	–	0.998	0.671	0.44	0.33	–	–	–	–	–	–
LC-2-ad	0.584	0.718	0.337	0.418	0.839	–	0.172	0.12	0.0995	0.712	0.682	0.513	0.348	0.972	0.906	0.701	0.815	0.944	0.276
NCI-H2087	1.23	0.82	–	0.8	1.11	1.3	0.681	0.207	0.0787	0.577	0.607	0.45	0.319	1.73	1.52	0.983	1.48	1.4	–
NCI-H358	0.125	0.128	0.191	0.155	0.19	0.339	0.253	0.195	0.172	0.637	0.686	0.612	0.39	0.45	0.517	–	0.427	0.651	0.378
H3255	0.407	0.319	0.487	0.389	0.399	0.658	0.324	0.204	0.126	0.573	0.578	0.578	0.556	0.884	0.931	0.627	0.867	1.11	0.474
NCI-H23	0.856	–	0.801	0.755	0.78	0.223	0.164	0.12	0.0804	0.317	0.373	0.256	0.229	0.294	0.22	0.273	0.256	0.232	0.126
CAL-12T	0.317	0.391	0.324	0.371	0.341	0.416	0.409	0.257	0.167	0.701	0.634	0.638	0.365	0.586	0.717	0.497	0.622	0.708	0.338
A-427	0.92	0.76	0.547	0.714	0.755	0.545	0.246	0.169	0.142	0.68	0.521	0.674	0.385	0.742	0.692	1.01	0.727	0.808	0.305
HARA	0.248	0.25	0.277	0.327	0.26	0.278	0.262	–	0.029	0.775	1.01	0.623	0.845	0.339	0.392	0.288	0.294	0.307	0.169
NCI-H1793	0.431	0.38	0.369	0.408	0.398	0.352	0.143	0.186	0.145	0.787	0.9	0.613	0.483	0.41	0.537	–	0.441	0.33	–
NCI-H1623	0.552	0.444	0.525	0.501	0.519	–	–	–	–	–	–	–	–	–	–	–	–	–	–
NCI-H2023	0.91	0.726	0.424	0.567	0.617	–	–	–	–	0.517	0.196	0.111	0.0832	–	–	–	–	–	–
ABC-1	0.506	0.53	0.434	–	0.673	0.3	0.393	0.642	0.0806	0.782	0.716	1	0.51	1.16	–	0.636	0.682	0.751	0.496
IA-LM	–	–	–	–	–	–	–	–	–	1	0.576	0.285	0.193	–	–	–	–	–	–
NCI-H441	0.592	0.643	0.406	0.647	0.83	0.86	0.315	0.293	0.165	0.514	0.438	0.292	0.269	1.24	1.03	0.798	1.18	1.38	0.538
NCI-H1915	0.345	0.335	–	0.291	0.322	0.707	0.346	0.21	0.09	0.197	0.269	0.22	0.211	0.703	0.734	0.645	0.664	0.761	0.495
LXF-289	0.24	0.223	0.227	0.25	0.225	0.903	0.298	0.0835	0.0894	1.05	0.778	0.439	0.334	1.15	1.15	0.987	1.21	1.24	0.157
HCC-827	0.348	0.412	0.251	0.319	0.338	0.204	0.153	0.143	0.115	0.336	0.647	0.552	0.304	0.218	0.222	0.198	0.204	0.244	0.179

Cell Line	relative viability ([1]; first compound 0.08 µM)	relative viability ([1]; first compound 0.253 µM)	relative viability ([1]; first compound 0.8 µM)	relative viability ([1]; first compound 2.53 µM)	relative viability ([1]; first compound 8 µM)	relative viability ([2]; first compound 0.005 µM)	relative viability ([2]; first compound 0.05 µM)	relative viability ([2]; first compound 0.1581 µM)	relative viability ([2]; first compound 0.5 µM)	relative viability ([3]; first compound 0.02 µM)	relative viability ([3]; first compound 0.2 µM)	relative viability ([3]; first compound 0.6325 µM)	relative viability ([3]; first compound 2 µM)	relative viability ([4]; first compound 0.08 µM)	relative viability ([4]; first compound 0.253 µM)	relative viability ([4]; first compound 0.8 µM)	relative viability ([4]; first compound 2.53 µM)	relative viability ([4]; first compound 8 µM)	relative viability ([2]; first compound 0.01581 µM)
EMC-BAC-2	0.269	0.323	0.378	0.314	0.367	0.352	0.203	0.262	0.192	0.479	0.53	0.45	0.469	1.22	1.2	0.849	1.04	1.35	0.215
NCI-H647	0.257	0.201	0.126	0.194	0.247	0.296	0.121	0.0587	0.05	0.577	0.501	0.434	0.407	0.592	0.5	0.362	0.575	0.488	0.102
NCI-H1792	0.881	0.867	–	0.812	0.914	0.227	0.0605	0.0466	0.0293	0.467	0.54	0.169	0.175	0.98	0.647	–	0.766	0.703	0.0748
NCI-H2009	0.297	0.322	0.305	0.256	0.344	–	–	–	–	0.794	0.668	0.655	0.466	–	–	–	–	–	–
NCI-H2347	0.282	0.25	–	0.303	0.275	0.459	0.374	–	0.224	0.62	0.489	0.456	0.445	0.711	0.778	0.653	0.737	0.817	0.264
NCI-H522	0.841	0.962	0.891	0.917	0.908	0.953	0.715	0.639	0.404	0.547	0.618	0.647	0.621	0.753	0.921	0.962	0.693	0.657	0.866
NCI-H1437	0.405	0.462	0.293	0.399	0.444	1.02	0.78	0.574	0.219	0.517	0.285	0.222	0.217	1.18	1.12	1.1	1.14	1.11	0.686
SK-MES-1	0.336	0.367	0.366	0.352	0.331	–	–	–	–	0.656	0.32	0.296	0.264	–	–	–	–	–	–
NCI-H3122	0.79	0.825	0.74	0.705	0.894	–	0.678	–	0.192	0.51	0.542	0.299	0.216	1.2	1.08	1.01	0.968	0.947	–
NCI-H1299	–	–	–	–	–	–	–	–	–	1.06	1.02	0.917	0.655	–	–	–	–	–	–
NCI-H1563	0.414	0.451	0.476	0.418	0.497	–	–	–	–	–	–	–	–	–	–	–	–	–	–
NCI-H1650	0.304	0.353	–	0.321	0.341	–	–	–	–	0.797	0.754	0.381	0.229	–	–	–	–	–	–
Calu-6	–	–	–	–	–	–	–	–	–	0.535	0.557	0.519	0.347	–	–	–	–	–	–
NCI-H661	0.966	0.842	0.759	0.807	1.08	–	–	–	–	0.776	0.8	0.808	0.693	–	–	–	–	–	–
EBC-1	–	–	–	–	–	–	–	–	–	0.769	0.772	0.759	0.44	–	–	–	–	–	–
NCI-H1648	–	–	–	–	–	0.611	0.373	0.412	0.388	0.632	0.796	0.638	0.332	0.682	0.746	–	0.7	0.768	0.409
COR-L23	0.478	0.419	0.438	0.489	0.744	–	–	–	–	0.36	0.312	0.273	0.18	–	–	–	–	–	–
NCI-H1703	–	–	–	–	–	0.121	0.107	0.083	0.118	0.337	0.614	0.365	0.255	0.129	0.14	–	0.111	0.17	0.0954
SW 1573	0.392	0.691	–	0.574	0.497	–	–	–	–	0.477	0.625	0.416	0.262	–	–	–	–	–	–
HCC-44	–	–	–	–	–	0.999	0.911	0.565	0.307	1.03	1.02	0.979	0.651	1.04	1.01	1.09	0.979	0.942	–
SK-LU-1	0.157	0.162	0.168	0.143	0.202	–	–	–	–	0.511	0.551	0.557	0.407	–	–	–	–	–	–
A549	–	–	–	–	–	–	–	–	–	0.298	0.501	0.202	0.0825	–	–	–	–	–	–
NCI-H520	0.241	0.201	–	0.204	0.226	–	–	–	–	0.294	0.366	0.33	0.258	–	–	–	–	–	–
